Values joined by “and” are separate entries in the source; they are usually repeats but may differ in a detail not shown here. Identical values can stand only once.
Columns and labels:
[1] = CPX release study, Franz diffusion cell with cellulose membrane; format: physicochemical; details: CPX release from BioQ-CPX, data up to 9 h
Method: (§1) The system was submerged in 15 mL of the same medium; (b) Franz diffusion cells (Permeagear, flat flange joint, 9 mm orifice diameter, 15 mL acceptor volume, SES GmbH-Analysesysteme, Bechenheim, Germany) consisting in a donor chamber filled with 10 mg of powder and soaked with 0.5 mL of citrate buffer pH 5.5, and an acceptor chamber filled with 15 mL of the same medium plus glacial acetic acid 0.01% (v/v). A cellulose dialysis membrane (Medicell Membranes, London, UK: MWCO: 12–14,000 Da) previously soaked with the acceptor fluid, was inserted between the two compartments.
(§2) QRC release studies were carried out using a modified transwell permeable support (0.45 µm) filled with 5 mg of the BioQ-CPX powder and soaked with 0.2 mL of citrate buffer pH 5.5. The entire system was dipped inside a beaker filled with 8 mL of 1-octanol as a suitable acceptor fluid. […] The experiments were carried out at 37 ± 0.5 °C under constant stirring and protected by light exposure while, immediately after sampling, opportune volumes of fresh acceptor fluid were added to maintain the sink conditions. Data are reported as means ± SE (n = 6). Drug release profiles were elaborated using OriginPro 8.5 software and fitted with semi-empirical model equations. Fittings were validated by using R^2 value where a p-value of less than 0.05 was considered statistically significant.

[2] = CPX release study, dialysis tube method; format: physicochemical; details: from BioQ-CPX, citrate buffer pH 5.5 + acetic acid, after 1.5 h
Method: as §1, §2

[3] = system: S. aureus cells growing as a biofilm; test: Biofilm inhibition, crystal violet staining; format: cell-based, Staphylococcus aureus; details: 5 mg BioQ-CPX in 200 μL culture, CPX at the same concentration as in BioQ-CPX; 24 h, 37 °C
Method: Briefly, pre-cultivated S. aureus cells for 16 h at 37 °C were inoculated (1% v/v corresponding to ca. 1 × 10^7 CFU/mL) in TSB medium. The set-up culture was aliquoted (200 μL) in a 96-well microtiter plate. […] The microtiter plate was then incubated for 24 h at 37 °C under static mode, allowing for bacterial biofilm formation. After the incubation period, bacterial cultures have been disposed, while each well was washed 3 time with 200 μL of sterile physiological (NaCl 0.9% w/v) solution to remove loosely adherent cells. Then, S. aureus biofilms were stained by adding 200 μL of an aqueous crystal violet (0.1% w/v) solution at room temperature for 15 min. Subsequently, wells were washed 5 times with 200 μL of physiological solution to remove the excess of unbound crystal violet and left to dry for 20 min at 65 °C. Finally, crystal violet was solubilized by adding 200 μL of an acetic acid (30% v/v) solution, the absorbance (Abs) being read at 600 nm using a DU-730 Life Science spectrophotometer (Beckman Coulter, Brea, CA, USA). Unchallenged cultures were used as reference biofilms (positive control), while wells containing only the medium utilized in this study were used as a negative control. The percentage of biofilm inhibition was calculated as follows: Biofilm inhibition (%)=(Abs positive control−Abs challenge)/Abs positive control×100

[4] = system: Staphylococcus aureus ATCC 25923 strain, growing as planktonic cells; test: Kill curve assay; format: cell-based; details: ca. 0.1 mg/mL CPX (highest amount in BioQ-CPX); data not shown
Method: Kill curve assays were performed to test the antimicrobial efficacy of BioQ-CPX, BioQ, and the Blank CTS matrix against the indicator pathogen Staphylococcus aureus ATCC 25923 strain, growing as planktonic cells. Briefly, a single colony of S. aureus strain was picked up and pre-cultivated (ca. 16 h) at 37 °C with shacking (160 rpm) in tryptone soy broth medium (hereinafter named as TSB; Merck, Milan, Italy). The same medium was solidified by adding 15 g/L of bacteriological agar when needed. Bacterial cells were then inoculated [0.05% v/v corresponding to ca. 5 × 10^5 colony forming units (CFU) per mL of culture] in TSB medium amended with increasing concentrations (i.e., 1, 2.5, and 5 mg/mL) of the above-mentioned samples. The set up bacterial cultures were challenged for 24 h according to the same pre-culturing conditions. The actual number of viable S. aureus CFU/mL—who survived the challenge exerted by BioQ-CPX, BioQ, and Blank matrix—was evaluated through the spot plate count method and compared to unchallenged cultures. The data are reported as average values (n = 3) of the CFU/mL in the logarithmic (Log10) scale with standard deviation (SD).

[5] = Ex vivo permeation/penetration experiments in Franz-type cells; format: in vitro ADME, pig; details: from 30 mg BioQ-CPX
Method: Tissue specimens were obtained from the vestibular area of the retromolar trigone derived from 6–8-month-old pigs supplied by the Municipal Slaughterhouse of Villabate (Palermo, Italy) since withdrawn from animals intended for human consumption. By a refrigerated transport box, the specimens were immediately transferred to the laboratory within 1 h from animal sacrifice and surgically treated to remove both adipose and connective tissues in excess. Afterward, they were dipped for 30 min in a 5% THR (w/v) isotonic solution and then stored at −80 °C for a minimum period of one week. Before the permeation/penetration experiments, tissue samples were accurately washed to remove the cryoprotectant, and, subsequently, thermal shocked to obtain the buccal mucosa. Briefly, tissue samples were dipped for 30 s in a pre-warmed (70 °C) isotonic solution, and then the mucosa was carefully peeled off from the connective tissue, obtaining the heat-separated epithelium along with the intact basal lamina. Finally, it was equilibrated in an isotonic solution for 3 h by replacing the medium every 15 min to remove all the biological matter, which could affect the analysis, before use.
The ex vivo permeation/penetration studies were carried out using vertical Franz-type diffusion cells. Briefly, appropriate sections of buccal mucosa were mounted between the donor and the acceptor chambers filled with 1 mL of citrate buffer pH 5.5 and 15 mL of citrate buffer pH 5.5 amended with acetic acid 0.1% (v/v), Acys 0.002% (w/v), and β-CD 3% (w/v). The whole system was equilibrated at 37 ± 0.5 °C for 30 min. Afterward, the medium was removed from the donor compartment, promptly replaced with 30 mg of BioQ-CPX, and soaked with 0.2 mL of citrate buffer pH 5.5. Every 30 min, aliquots (0.5 mL) were withdrawn from the acceptor chamber and immediately replaced with the same volume of fresh acceptor fluid to maintain the sink conditions. Experiments were carried out at 37 ± 0.5 °C in the dark and under constant stirring, being stopped at different time points ranging from 1 to 6 h. The amount of permeated QRC and CPX were quantified by UV–Vis analysis. Data are reported as means ± SE (n = 6).
Briefly, the mucosa was dipped into 2 mL of methanol and warmed up to 60 °C. The extraction procedure was performed twice, and the collected extraction liquors were transferred into a 10 mL flask and brought to volume with fresh methanol. Thus, QRC and CPX amounts were determined by UV–Vis analysis. Results are reported as means ± SE.

- CPX released [2]: 80%
- maximum amount accumulated into the mucosa ([5]; after 5 h): about 5 % of drugs dose
- amount accumulated into the mucosa ([5]; first hour from application): about 4 % of dose
SMILES: O=C(O)c1cn(C2CC2)c2cc(N3CCNCC3)c(F)cc2c1=O [CPX, Ciprofloxacin]
- Korsmeyer-Peppas n [1]: 0.8280 ± 0.0125 and 0.8280
- Korsmeyer-Peppas with Tlag n [1]: 0.8293
- First-Order k ([1]; time in hours): 0.1359
- Korsmeyer-Peppas k ([1]; time in hours): 0.1134
- Korsmeyer-Peppas with Tlag k ([1]; time in hours): 0.1113
- Korsmeyer-Peppas with Tlag: Tlag ([1]; time in hours): −0.031
- Zero-Order k ([1]; time in hours): 0.079
- S. aureus biofilm formation inhibition [3]: ca. 55%
- effect on bacterial growth [4]: did prevent bacterial growth
